Test results from patent publication US7378495B2, “PTH-rP related peptide cancer therapeutics” (Pevion Biotech, Ltd., priority 2002, dated 2008).
Marks after values point to notes of the source that are not given here. Bridges are numbered along the chain shown (N, C = ends). Where no end group is shown, it is not given here.

Legend:
[1] = 0.1 mg sc. in the dorsal neck, after 6 hours, three mice
[2] = biological target: HLA-A(*)02.01 molecules (Homo sapiens, UniProt P04439, D140Y/D185E/D98H/E176V/E277Q/G131W/G231S/I119V/I121R/I166T/I218V/L300P/L318F/N151K/N90K/P208A/P217A/Q86G/Q94H/R138H/R169H/T345S); assay: T2-A2 HLA up-regulation test (HLA-A2.1 class I up-regulation, peptide binding); settings: positive cut-off 287.116
Method: T2-A2, HLA up-regulation test: binding of the PTR-2 and PTR-4 peptides to HLA-A(*)02.01 molecules was evaluated by means of flow cytometry using T2 cells and the method described by Nijman et al. In this assay, increased stability (the accumulation of HLA-A(*)02.01 molecules on the surface of T2 cells as a consequence of peptide binding) is measured in terms of the increased binding of the antibody directed against HLA-A(*)02.01. Briefly, 10^6 T2 cells in serum-free IMDM were incubated overnight with escalating concentrations (0, 5, 25 and 50 μg/ml) of the PTR peptides in 24-well culture plates at 37° C. in an atmosphere containing 5% CO2. The cells were then washed two times with DPBS, and subsequently incubated for one hour with an anti-HLA-A(*)02.01 (A2.69) specific monoclonal antibody (A2.69, #189HA-1; One Lambda, Inc., Canoga Park, Calif.), using 10 μl of the recommended dilution per 10^6 cells. UPC-10 (Cappel/Organon Teknika Corp) was used as an isotype control. The cells were again washed two times with DPBS, incubated with 100 μl of a 1:100 dilution of fluorescein isothiocyanate (FITC)-labeled anti-mouse IgG (Becton Dickinson Corp.), and analyzed by means of FACScan and single-color analysis. The cells were kept at 4° C. during all of the manipulations unless otherwise stated.
Peptide selection and HLA-A(*)02.01 binding: In order to test the immunogenicity of PTH-rP protein and test possible tolerance of human T cell repertoire specific for it, the PTH-rP molecules were screened with the “Parker” algorithm (BIMAS) in order to predict peptides having high theoretical HLA-A(*)02.01 binding motifs. The functional binding of the two peptides to HLA-A(*)02.01 molecules was tested in vitro by means of the T2 test. PTH-rP peptides with similar or overlapping amino acid homology to the analogue sequences of parathyroid hormone (PTH) were cut out of the screening. The peptide sequences included in the first 36 amino acids (pro-peptide) were ignored although theoretically predicted with higher affinity for the HLA-A(*)02.01 molecule. […]

T2 binding ([2]; peptide 5 μg/ml)	T2 binding ([2]; peptide 25 μg/ml)	T2 binding ([2]; peptide 50 μg/ml)	Substance	Serum Ca (hypocalcemia induced by positive control) [1] [mmol/L]
			Human synthetic thyreocalcitonin: Sigma-Aldrich # T3535, positive control capable to induce hypocalcemia (CGNLSTCMLGTYTQDFNKFHTFPQTAIGVGAP-NH2; disulfide 1-7; ends not checked; UniProt P01258 85-116, looked up)	0.64 ± 0.645
240^d relative fluorescence values	352^e relative fluorescence values	502.9^f relative fluorescence values	YLSGANLNL [CAP-1]	
